What was measured:
[1] = Pharmacokinetics in SD rats by oral gavage; type: in vivo; details: for AUC / bioavailability / half-life / Cmax: male, Sprague-Dawley, rat, plasma, PO 10 mg/kg; for bioavailability: read-out: Bioavailability F; for half-life: read-out: Half-life period T½ (converted); for Cmax: read-out: Plasma concentration Cmax; for Pharmacokinetic properties compared with Atogepant: conclusion in words
Source text: SD rats were used as test animals, and the LC/MS/MS method was used to determine the drug concentration in plasma at different times after gavage and intravenous […] of the compound of the application, so as to study the pharmacokinetic characteristics of the compound of the application in rats.
Positive control compound Atogepant, Example 1A and Example 3A of the present application;
Eighteen healthy adult Sprague Dawley (SD) male rats were purchased from Joinn (Suzhou) New Drug Research Center Co., Ltd.
An appropriate amount of the compound to be tested was weighed, added with 100% polyethylene glycol 400, and vortexed to dissolve the compound. After the preparation was completed, it would be a colorless and transparent solution with a concentration of 2 mg/mL.
An appropriate amount of the compound to be tested was weighed, added 90% polyethylene glycol 400 and 10% ethanol, and vortexed to dissolve the compound. After the preparation was completed, it would be a colorless and transparent solution with a concentration of 1 mg/mL.
Eighteen healthy adult SD male rats were fasted overnight and fed 4 hours after drug administration.
About 0.2 mL of blood was collected from the jugular vein before administration and 0.083 hours, 0.25 hours, 0.5 hours, 1 hour, 2 hours, 4 hours, 6 hours, 8 hours, 10 hours and 24 hours after administration, and anticoagulated with EDTA-K2. After blood samples were collected, they were placed in labeled ice-water bath centrifuge tubes and rapidly centrifuged to separate plasma. The centrifugation conditions were: 4000 rpm, 10 minutes, 4° C. The collected plasma was stored at below −40° C. for testing. The content of the tested compounds in the plasma of SD rats after gavage and intravenous administration of different compounds was determined by LC-MS/MS.

[2] = tested on: Cynomolgus monkey blood flow; assay: Capsaicin-induced Cynomolgus monkey blood flow model; type: in vivo, Cynomolgus monkeys; details: N = 3
Procedure: In the capsaicin-induced Cynomolgus monkey blood flow model, the inhibitory effect of the compounds of the present application on cynomolgus monkey blood flow was evaluated.
In Example 1A and Example 3A, 100% polyethylene glycol 400 was used as the vehicle.
Experimental animals: male cynomolgus monkeys, with a body weight range of 3.2 kg to 5.80 kg during the administration period, purchased from Guangxi Xiongsen Primate Experimental Animal Breeding and Development Co., Ltd., production license: SCXK (Gui) 2016-0003; experimental animal quality certificate number: NO. 0002942.
Housing conditions: animals were kept in stainless steel cages by a single cage feeding method. The cage specifications are length×width×height=1 m×1 m×0.8 m. Before anesthesia with zoletil, the animals need to be fasted (but not water). The rest of the time, the animals were fed once in the morning and afternoon, about 100 g each time for one animal, supplemented with fresh fruits. The temperature of the animal room was set at 18-26° C., the humidity was 40-70%, and the lighting was alternating between light and dark for 12 hours.
After adaptive feeding, 10 cynomolgus monkeys were randomly selected, and the basal values were recorded using a moorFLPI-2 laser speckle blood flowmeter before capsaicin stimulation. After capsaicin stimulation, blood flow was tested again, and animals with an area under the time-blood flow rate curve (AUC)≥1000 (min·%) and small individual differences were selected to enter this experiment.
The blank vehicle control group was given 100% polyethylene glycol 400, and the drug administration group was given high and low doses of Example 1A and Example 3A (dissolved in 100% polyethylene glycol 400), respectively.
Note: Bolus is a large-dose push injection; Infusion is a small-dose continuous infusion.
Blood flow detection: all animals were given capsaicin once on the day of administration, and blood flow was detected at 0 min (before capsaicin administration), 5 min, 10 min, 15 min, 20 min and 30 min after capsaicin administration to monitor blood flow changes during this period. After the experiment ended that day, washout was carried out at intervals of 7-10 days, during which the experimental animals were rotated in turn. This type of experiment was repeated three times to obtain the average value of each group of data.
The blood flow change rate, AUC (area under the blood flow change rate-time curve) and blood flow inhibition rate were calculated using Excel.

[3] = 5 min after capsaicin, 0.3 μg/kg + 0.03 μg/kg/min
[4] = 5 min after capsaicin, 1 μg/kg + 0.1 μg/kg/min
[5] = 10 min after capsaicin, 0.3 μg/kg + 0.03 μg/kg/min
[6] = 10 min after capsaicin, 1 μg/kg + 0.1 μg/kg/min
[7] = 15 min after capsaicin, 0.3 μg/kg + 0.03 μg/kg/min
[8] = 15 min after capsaicin, 1 μg/kg + 0.1 μg/kg/min
[9] = 20 min after capsaicin, 0.3 μg/kg + 0.03 μg/kg/min
[10] = 20 min after capsaicin, 1 μg/kg + 0.1 μg/kg/min
[11] = 30 min after capsaicin, 0.3 μg/kg + 0.03 μg/kg/min
[12] = 30 min after capsaicin, 1 μg/kg + 0.1 μg/kg/min

AUC [1] | bioavailability [1] | half-life [1] | Cmax [1] | Pharmacokinetic properties compared with Atogepant [1] | Structure (SMILES) | AUC (area under the blood flow change rate-time curve) ([2]; 0.3 μg/kg + 0.03 μg/kg/min) | AUC (area under the blood flow change rate-time curve) ([2]; 1 μg/kg + 0.1 μg/kg/min) | Blood flow change rate [2, 3] | Blood flow change rate [2, 4] | Blood flow change rate [2, 5] | Blood flow change rate [2, 6] | Blood flow change rate [2, 7] | Blood flow change rate [2, 8] | Blood flow change rate [2, 9] | Blood flow change rate [2, 10] | Blood flow change rate [2, 11] | Blood flow change rate [2, 12]
2440 ± 1400 ng·h/mL | 12.5 ± 7.3% | 1.6 ± 0.3 h | 560 ± 233 ng/mL |  | C[C@@H]1[C@H](c2c(F)ccc(F)c2F)C[C@H](NC(=O)c2cnc3c(c2)C[C@@]2(C3)C(=O)Nc3ncccc32)C(=O)N1CC(F)(F)F [Atogepant, reference compound] |  |  |  |  |  |  |  |  |  |  |  | 
23200 ± 7950 ng·h/mL | 38.6 ± 13.3% | 2.93 ± 0.6 h | 3850 ± 1460 ng/mL | good pharmacokinetic properties | C[C@@H]1[C@H](c2c(F)ccc(F)c2F)C[C@H](NC(=O)c2cc3c(o2)CC[C@]2(C3)C(=O)Nc3ncccc32)C(=O)N1CC(F)(F)F [Example 1A, (R)—N-((3S,5S,6R)-6-methyl-2-oxo-1-(2,2,2-trifluoroethyl)-5-(2,3,6-trifluorophenyl)piperidin-3-yl)-2′-oxo-1′,2′,6,7-tetrahydro-4H-spiro[benzofuran-5,3′-pyrrolo[2,3-b]pyridine]-2-carboxamide] | 454 %-min | 198 %-min | 26% | 12% | 37% | 21% | 26% | 5% | 12% | 9% | −4% | −6%
42500 ± 8520 ng·h/mL | 90.5 ± 19.1% | 1.62 ± 0.2 h | 10500 ± 3730 ng/mL | good pharmacokinetic properties | C[C@@H]1[C@H](c2c(F)ccc(F)c2F)C[C@H](NC(=O)c2cc3c(s2)C[C@]2(C3)C(=O)Nc3ncccc32)C(=O)N1CC(F)(F)F [Example 3A, (S)—N-((3S,5S,6R)-6-methyl-2-oxo-1-(2,2,2-trifluoroethyl)-5-(2,3,6-trifluorophenyl)piperidin-3-yl)-2′-oxo-1′,2′,4,6-tetrahydrospiro[cyclopenta[b]thiophene-5,3′-pyrrolo[2,3-b]pyridine]-2-carboxamide] | 1481 %-min | 395 %-min | 69% | 27% | 71% | 35% | 69% | 25% | 48% | 3% | 49% | 1%

Source: US20250353860A1, “PIPERIDINE CARBOXAMIDE AZAINDANE DERIVATIVE, METHOD FOR PREPARING SAME, AND USE THEREOF” (BRISE PHARMACEUTICALS CO., LTD., priority 2022, published 2025)
